Measured values published in PMC5578999, “Novel quinolone chalcones targeting colchicine-binding pocket kill multidrug-resistant cancer cells by inhibiting tubulin activity and MRP1 function” (Scientific Reports, 2017).

Experiments:
Type in all cases: cell-based
KB-C-1 = assay: SRB cell viability, parental cells; details: Homo sapiens, KBC-1; parental KB-C-1
Protocol: human epidermoid carcinoma cell line and KB-C2, an isogenic MDR1- overexpressing drug-resistant cell line, were kindl y provided b y Dr. Amit K Tiwari, the Universit y of Toledo, OH. […]
Cell line authentication was carried out by Genetica DNA
(§1) Cell viability, com binational i ndex and cell synchronization
Cell viability and proliferation were ex amined using a s ulforhodamine B (SRB) assa y as […]
(§2) IC 50 values were calculat ed from si gmoidal dose-response cu rves gen erat ed b y at least two indepen dent ex periments , with each quadruplicate samples, using GraphPad Prism v.5.04 software (GraphPad Software, Inc, La J olla, CA). […]
(sham) or presence of compound(s). […]

U87MG = assay: SRB cell viability/proliferation; details: Homo sapiens, U-87 MG
Protocol: (§3) and MCF10AT1 cells were cultured in Dulbecco's Modified Eagle's Medium/Ham's Nutrient Mixture F-12 (DME/F12) supplemented with 10% (volume/volume) FBS , 100 μg/ml streptom ycin and 100 units/ml penicillin, antim ycotic solution, 0.5 μg/ml hydrocortisone, 10 ng/ml human epiderm al growth factor (hEGF) and 5 μg/ml insulin, whereas MCF10CA1a cell line was cultured in DM EM supplemented with 10% FBS (volume/volume). KB-3- 1, parental human epidermoid carcinoma cell line and KB-C2, an isogenic MDR1- overexpressing drug-resistant cell line, were kindl y provided b y Dr. Amit K Tiwari, the Universit y of Toledo, OH.
(§4) Parental HEK293 and M RP1- overexpressing HEK293- MRP1 isogenic cel ls were kind gifts of Dr. Susan Cole (Queen’s Universit y, Kingston, Ontario, Canada). The pacl itaxel-resistant MDA-MB-231TaxR cell line was generated in house b y culturing MDA-MB-231 cells (purchased from ATCC and authen ticated ) in the gradual l y incr easi ng con centr ations of pacl itax el until the concentration reached to 100 nM. Cell line authentication was carried out by Genetica DNA Laboratories (Burlington, NC) using a short tandem repeat (STR) profiling method (March 2015; […]
(§5) Cell cycl e pro gr ession in the absence (sham) o r pr esence o f compound(s ) was determined with a Beckman Coulter Epics Elite FC 500 Flow C ytom eter as described previousl y (Romero

MDA-MB-468 = assay: SRB cell viability/proliferation; details: Homo sapiens
Protocol: as §3, §4, §5

MRP1 = target: T1, MRP1 (Homo sapiens, UniProt P33527); assay: Rh123 dye efflux assay, HEK293-MRP1 cells; details: 22 µmol/L of drug, DMSO control 39.6%
T1 construct: expressed in transfected cells; host or cells: HEK293-MRP1 (gift of Dr. Susan Cole)
T1 sequence (P33527 whole entry): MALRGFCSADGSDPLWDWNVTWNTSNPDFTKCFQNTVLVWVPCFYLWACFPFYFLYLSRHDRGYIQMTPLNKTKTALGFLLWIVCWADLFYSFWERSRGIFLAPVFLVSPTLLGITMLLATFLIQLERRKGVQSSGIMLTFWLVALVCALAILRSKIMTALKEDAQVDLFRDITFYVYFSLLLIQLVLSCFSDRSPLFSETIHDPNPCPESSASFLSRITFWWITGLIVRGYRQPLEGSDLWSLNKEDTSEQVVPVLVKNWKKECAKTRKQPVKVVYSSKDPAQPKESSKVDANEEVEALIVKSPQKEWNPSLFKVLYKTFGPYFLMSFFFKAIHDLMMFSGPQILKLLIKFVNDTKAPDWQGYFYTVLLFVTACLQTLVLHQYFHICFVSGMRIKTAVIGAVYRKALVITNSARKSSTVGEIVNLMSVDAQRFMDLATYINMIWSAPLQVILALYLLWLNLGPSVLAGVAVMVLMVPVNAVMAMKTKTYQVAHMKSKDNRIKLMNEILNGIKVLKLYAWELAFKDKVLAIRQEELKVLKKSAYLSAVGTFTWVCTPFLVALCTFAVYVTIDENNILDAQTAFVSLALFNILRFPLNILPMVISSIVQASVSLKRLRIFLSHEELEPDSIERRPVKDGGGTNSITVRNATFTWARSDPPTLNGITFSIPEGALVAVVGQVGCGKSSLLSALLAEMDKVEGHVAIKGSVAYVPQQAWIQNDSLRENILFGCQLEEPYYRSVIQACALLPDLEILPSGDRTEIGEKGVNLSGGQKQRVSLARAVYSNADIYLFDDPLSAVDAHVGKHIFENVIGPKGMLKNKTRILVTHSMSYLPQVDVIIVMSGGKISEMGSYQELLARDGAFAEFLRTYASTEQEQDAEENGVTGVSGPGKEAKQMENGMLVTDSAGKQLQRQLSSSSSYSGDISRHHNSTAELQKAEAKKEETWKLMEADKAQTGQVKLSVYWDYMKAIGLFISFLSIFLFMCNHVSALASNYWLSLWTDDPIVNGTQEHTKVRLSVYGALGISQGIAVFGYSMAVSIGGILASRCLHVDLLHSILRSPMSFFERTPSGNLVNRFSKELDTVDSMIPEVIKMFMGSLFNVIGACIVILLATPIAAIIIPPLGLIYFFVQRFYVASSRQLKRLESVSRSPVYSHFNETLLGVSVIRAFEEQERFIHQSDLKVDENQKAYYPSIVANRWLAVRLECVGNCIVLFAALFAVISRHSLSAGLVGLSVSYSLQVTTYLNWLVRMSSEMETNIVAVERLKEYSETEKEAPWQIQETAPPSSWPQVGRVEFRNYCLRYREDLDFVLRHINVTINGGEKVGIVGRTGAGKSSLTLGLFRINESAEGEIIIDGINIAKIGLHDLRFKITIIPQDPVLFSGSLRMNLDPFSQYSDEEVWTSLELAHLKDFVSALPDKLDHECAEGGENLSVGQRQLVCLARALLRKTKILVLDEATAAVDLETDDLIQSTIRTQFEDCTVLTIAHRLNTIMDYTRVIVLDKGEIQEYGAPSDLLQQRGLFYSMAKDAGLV
Protocol: Rhodamine123 (Rh123) drug efflux was carried out using a Multidrug-Resistance Direct Dye Efflux Activity Kit (Millipore, Darmstadt, Germany), with some modifications. […] Reading was carried out with a Beckman Coulter FC500 flow cytometer.

ACHN = assay: NCI-60 SRB screen; details: 1.00E-5 Molar
Text: (§6) Supplementary Table S 3: Antitumor activity of CTR -17 and CTR -20, alone or in combination […]
(§7) a Tax: paclitaxel. b mg per kg of bod y wei ght. c unit is mm 3.
(§8) Supplementary Figure l egend
(§9) 10μ M of CTR-20 was used to examine the drug’s efficac y against the NC I-60 cancer cell li nes including: six leukemia cell lines, nine non- small cell lung cancer cell lines, seven color ect al cancer cell lines, six CNS cancer cell lines, nine melanoma cell lines, seven ovari an can cer cell lines, seven ren al can cer cell lines, two prostate cancer cell lines and six breast cancer cell lines. The scr eenin g was car r ied out b y the US National Cancer Institute (NC I) us i n g a sulforhodamine B (SRB) colorimetric assay. […]
(§10) out by the NC I using five different doses of CTR -20.

COLO 205 = assay: NCI-60 SRB screen; details: 1.00E-5 Molar
Text: as §6, §7, §8, §9, §10

HCT-116 = assay: NCI-60 SRB screen
Text: as §6, §7, §8, §9, §10

[1] = tested on: non-cancerous cells (MCF 10A and 184B5); assay: SRB cell viability, cancer vs non-cancer cells; details: cancer cells vs MCF 10A and 184B5
Protocol: as §3, with “KB-3- 1, parental human epidermoid carcinoma cell line and KB-C2, an isogenic MDR1- overexpressing drug-resistant cell line, were kindl y provided b y Dr. Amit K Tiwari, the Universit y of Toledo, OH.” left out
as §4, with “Dr.” for “Parental HEK293 and M RP1- overexpressing HEK293- MRP1 isogenic cel ls were kind gifts of Dr.”
as §1
as §2, with “Cell viability and proliferation were ex amined using a s ulforhodamine B (SRB) assa y as described previousl y (Hu et al., 2008). IC” for “IC”

Structure (SMILES) | IC50 (KB-C-1) | IC50 (U87MG) | IC50 (MDA-MB-468) | Rh123 retention (MRP1) | Growth Percent (ACHN) | Growth Percent (COLO 205) | Log10GI50 (HCT-116) | Log10LC50 (HCT-116) | Log10TGI (HCT-116) | TGI (HCT-116) | Growth Percent (HCT-116; 1.00E-5 Molar) | GI50 (HCT-116; Homo sapiens) | CC50 (HCT-116; Homo sapiens, read-out: LC50 (the source's name)) | Percent Growth (HCT-116; Log10 Concentration -4.0) | Percent Growth (HCT-116; Log10 Concentration -5.0) | Percent Growth (HCT-116; Log10 Concentration -6.0) | Percent Growth (HCT-116; Log10 Concentration -7.0) | Percent Growth (HCT-116; Log10 Concentration -8.0) | killed cancer cells more effectively than non-cancerous cells [1]
COc1ccc2[nH]c(=O)c(/C=C/C(=O)c3ccccc3OC)cc2c1 [CTR-20, (E)-6-Methoxy-3-(3-(2-methoxyphenyl)-3-oxoprop-1-enyl) quinolin-2(1H)-one] | 0.1 ± 0.01 µM | 1.11 µM | 0.12 µM | 81.7% | 38.84% | 20.45% | -6.46 Molar | -5.26 Molar | -5.83 Molar | 1.48E-6 Molar | 16.04% | 0.348 µM | 5.48 µM | -96% | -73% | 15% | 92% | 94% | 20–26 folds
COc1ccccc1C(=O)/C=C/c1cc2ccccc2[nH]c1=O [CTR-17, (E)-3-(3-(2-Methoxyphenyl)-3-oxoprop-1-enyl)quinolin-2(1H)-one] | 0.38 ± 0.07 µM |  |  |  |  |  |  |  |  |  |  |  |  |  |  |  |  |  | 20–26 folds
